Laboratory results taken from ChEMBL document CHEMBL1201862, “PubChem BioAssay data set” (2004).
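Cultured in 96-well plates, cells were exposed to test compound for 48 hours across five concentrations. At the GI50, growth is halved.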 Active and inactive are the calls of the source. Cut-off read from the data, not from the text of the source: active = GI50 up to about 1.1 µM and inactive = higher.

Key:
Assay in all cases: NCI-60 cell line screen, 48 h
[1] = test system: DU-145
[2] = test system: RPMI-8226
[3] = test system: A549
[4] = test system: IGROV-1
[5] = test system: TK-10
[6] = test system: NCI/ADR-RES
[7] = test system: UO-31
[8] = test system: EKVX
[9] = test system: SNB-19
[10] = test system: HOP-92
[11] = test system: SR
[12] = test system: MCF7
[13] = test system: SK-MEL-5
[14] = test system: U-251
[15] = test system: HOP-62
[16] = test system: NCI-H460
[17] = test system: OVCAR-3
[18] = test system: ACHN
[19] = test system: SF-268

| SMILES | GI50 [1] | GI50 [2] | GI50 [3] | GI50 [4] | GI50 [5] | GI50 [6] | GI50 [7] | GI50 [8] | GI50 [9] | GI50 [10] | GI50 [11] | GI50 [12] | GI50 [13] | GI50 [14] | GI50 [15] | GI50 [16] | GI50 [17] | GI50 [18] | GI50 [19] |
| --- | --- | --- | --- | --- | --- | --- | --- | --- | --- | --- | --- | --- | --- | --- | --- | --- | --- | --- | --- |
| C(=C\c1cccs1)/c1cccc(/C=C/c2cccs2)n1 | > 100 µM (inactive) | > 100 µM (inactive) | 60.7 µM (inactive) | 50 µM (inactive) | 34.9 µM (inactive) | > 100 µM (inactive) | 30.3 µM (inactive) | > 100 µM (inactive) | 78.9 µM (inactive) | > 100 µM (inactive) | 32.4 µM (inactive) | 3.55 µM (inactive) | > 100 µM (inactive) | 54.7 µM (inactive) | 83 µM (inactive) | 36.4 µM (inactive) | 50.8 µM (inactive) | 8.11 µM (inactive) | 2.61 µM (inactive) |
| CC(C)Sc1nncc(/C(N)=N/O)n1 | > 100 µM (inactive) | > 100 µM (inactive) | > 100 µM (inactive) | > 100 µM (inactive) | > 100 µM (inactive) | > 100 µM (inactive) | > 100 µM (inactive) | > 100 µM (inactive) | > 100 µM (inactive) | 92 µM (inactive) | > 100 µM (inactive) | > 100 µM (inactive) | > 100 µM (inactive) | > 100 µM (inactive) | > 100 µM (inactive) | > 100 µM (inactive) | > 100 µM (inactive) | > 100 µM (inactive) | > 100 µM (inactive) |
| CC1(C)CCC2=C(O1)/C(=N\Nc1ccc(F)cc1)c1ccccc1C2=O | 18.4 µM (inactive) | 40.4 µM (inactive) | 16.1 µM (inactive) | 31.9 µM (inactive) | 38.9 µM (inactive) | 71.8 µM (inactive) | 38.2 µM (inactive) | 22.4 µM (inactive) | 35.6 µM (inactive) | 39.5 µM (inactive) | 21.9 µM (inactive) | 27.3 µM (inactive) | 8.91 µM (inactive) | 31.5 µM (inactive) | 21.7 µM (inactive) | 23.9 µM (inactive) | 21 µM (inactive) | 38.5 µM (inactive) | 52.1 µM (inactive) |
| CC(=O)Nc1ccc(NNc2cc(=O)n(C)c(=O)[nH]2)cc1 | 16 µM (inactive) | 2.84 µM (inactive) | 19 µM (inactive) | 14 µM (inactive) | 23.2 µM (inactive) | 16.7 µM (inactive) | 17.2 µM (inactive) | 17 µM (inactive) | 17.7 µM (inactive) | 2 µM (inactive) | 3.47 µM (inactive) | 5.57 µM (inactive) | 16.7 µM (inactive) | 11.7 µM (inactive) | 15.1 µM (inactive) | 17.1 µM (inactive) | 2.68 µM (inactive) | 2.91 µM (inactive) |  |
| O=C1CN(/N=C/c2ccc(-c3ccc(F)cc3)o2)C(=O)N1 | > 100 µM (inactive) | 28 µM (inactive) | 52.2 µM (inactive) | 41.6 µM (inactive) | 69.2 µM (inactive) | 25.9 µM (inactive) | 75.2 µM (inactive) | > 100 µM (inactive) | 83.9 µM (inactive) | 0.394 µM (active) | 24 µM (inactive) | 49.1 µM (inactive) | 26.4 µM (inactive) | 89.3 µM (inactive) | > 100 µM (inactive) | 45.2 µM (inactive) | > 100 µM (inactive) | > 100 µM (inactive) | > 100 µM (inactive) |
| C=C(C)CNC(=S)N(N)c1ccc2ccccc2c1 | > 100 µM (inactive) | > 100 µM (inactive) | > 100 µM (inactive) | 11.4 µM (inactive) | 23.6 µM (inactive) | 78 µM (inactive) | 61.1 µM (inactive) | 24.7 µM (inactive) | > 100 µM (inactive) | > 100 µM (inactive) | > 100 µM (inactive) | 26.5 µM (inactive) | > 100 µM (inactive) | > 100 µM (inactive) | > 100 µM (inactive) | > 100 µM (inactive) | 88.5 µM (inactive) | 34.5 µM (inactive) | 78 µM (inactive) |
| CCOc1ccc(N/C(Cl)=C(Cl)\C(=C(\Nc2ccc(OCC)cc2)n2nnc3ccccc32)[N+](=O)[O-])cc1 | 14.5 µM (inactive) | 4.18 µM (inactive) | 23.3 µM (inactive) | 1.79 µM (inactive) | 4.49 µM (inactive) | 15.2 µM (inactive) | 4.45 µM (inactive) | 12.2 µM (inactive) | 17.4 µM (inactive) | 2.25 µM (inactive) | 1.45 µM (inactive) | 5.89 µM (inactive) | 8.49 µM (inactive) | 6.78 µM (inactive) | 33.1 µM (inactive) | 24.7 µM (inactive) | 4.12 µM (inactive) | 4.03 µM (inactive) | 6.98 µM (inactive) |
| COC(=O)[C@H]1[C@@H](C(C)C)O[C@@H](C(C)C)O[C@H]1C(F)(F)F | > 100 µM (inactive) | > 100 µM (inactive) | > 100 µM (inactive) | 37.9 µM (inactive) | > 100 µM (inactive) | > 100 µM (inactive) | > 100 µM (inactive) | > 100 µM (inactive) | > 100 µM (inactive) | 44.6 µM (inactive) | > 100 µM (inactive) | > 100 µM (inactive) | > 100 µM (inactive) | > 100 µM (inactive) | > 100 µM (inactive) | > 100 µM (inactive) | > 100 µM (inactive) | > 100 µM (inactive) | > 100 µM (inactive) |
| COC1OC(COC(=O)NCCCCC(=O)C(F)(F)F)C(O)C(O)C1O (centres undefined) | > 100 µM (inactive) | > 100 µM (inactive) | > 100 µM (inactive) | > 100 µM (inactive) | > 100 µM (inactive) | > 100 µM (inactive) | > 100 µM (inactive) |  | > 100 µM (inactive) | > 100 µM (inactive) | > 100 µM (inactive) | > 100 µM (inactive) | > 100 µM (inactive) | > 100 µM (inactive) | > 100 µM (inactive) | > 100 µM (inactive) | > 100 µM (inactive) | > 100 µM (inactive) | > 100 µM (inactive) |
| O=C(NN1C(=O)c2ccccc2C1=O)c1ccccc1Nc1ccccc1C(=O)NN1C(=O)c2ccccc2C1=O | > 100 µM (inactive) | 49.2 µM (inactive) |  | > 100 µM (inactive) | > 100 µM (inactive) | > 100 µM (inactive) | > 100 µM (inactive) | > 100 µM (inactive) | > 100 µM (inactive) | > 100 µM (inactive) | > 100 µM (inactive) | > 100 µM (inactive) | > 100 µM (inactive) | > 100 µM (inactive) | > 100 µM (inactive) | > 100 µM (inactive) | > 100 µM (inactive) | > 100 µM (inactive) | > 100 µM (inactive) |
| Cc1cc(Cc2cc(C)c(NC(=O)C(=O)C3CCC4=C(SC5C=CC=CC5N4)C3=O)c(C(C)C)c2)cc(C(C)C)c1NC(=O)C(=O)C1CCC2=C(SC3C=CC=CC3N2)C1=O (centres undefined) | > 100 µM (inactive) | 37.4 µM (inactive) | 64 µM (inactive) | 34 µM (inactive) | > 100 µM (inactive) | 35.5 µM (inactive) | 41.3 µM (inactive) | 52.7 µM (inactive) |  | > 100 µM (inactive) | 60.8 µM (inactive) | 62.5 µM (inactive) | 35.8 µM (inactive) | 50.1 µM (inactive) | 94.4 µM (inactive) | 53.1 µM (inactive) | 35 µM (inactive) | 62.4 µM (inactive) | 74.8 µM (inactive) |
| Cn1c(=O)c2nc3nnc(C#N)c(N)n3c2n(C)c1=O | 72.4 µM (inactive) | > 100 µM (inactive) | > 100 µM (inactive) | 87.3 µM (inactive) | > 100 µM (inactive) | > 100 µM (inactive) | 50.6 µM (inactive) | > 100 µM (inactive) |  | 31.8 µM (inactive) | > 100 µM (inactive) | > 100 µM (inactive) | 45.9 µM (inactive) | > 100 µM (inactive) | > 100 µM (inactive) | > 100 µM (inactive) | > 100 µM (inactive) | 44.4 µM (inactive) | > 100 µM (inactive) |
| CN(C)C(=S)Oc1ccc2ccc(=O)oc2c1 | > 100 µM (inactive) | > 100 µM (inactive) | > 100 µM (inactive) | > 100 µM (inactive) | > 100 µM (inactive) | > 100 µM (inactive) | > 100 µM (inactive) | > 100 µM (inactive) | > 100 µM (inactive) | > 100 µM (inactive) | > 100 µM (inactive) | > 100 µM (inactive) | > 100 µM (inactive) | > 100 µM (inactive) | > 100 µM (inactive) | > 100 µM (inactive) | > 100 µM (inactive) | > 100 µM (inactive) | > 100 µM (inactive) |
| Cc1ccc(C2SC(=N)Nc3c2c(C)nn3C(=O)c2ccccc2O)cc1 (centres undefined) | > 10 µM (inactive) | > 10 µM (inactive) | 3.16 µM (inactive) | 2.81 µM (inactive) | > 10 µM (inactive) | > 10 µM (inactive) | 6.87 µM (inactive) | > 10 µM (inactive) | > 10 µM (inactive) | 0.475 µM (active) | > 10 µM (inactive) | > 10 µM (inactive) | 4.37 µM (inactive) | 5.38 µM (inactive) | > 10 µM (inactive) | 7.57 µM (inactive) | > 10 µM (inactive) | 6.03 µM (inactive) | 9.44 µM (inactive) |
| Cc1cnc2nc(-c3cccc4ccccc34)cc(O)c2c1 | 0.00394 µM (active) | 0.000487 µM (active) | 0.0014 µM (active) | 0.00552 µM (active) |  | 0.000428 µM (active) | 0.00242 µM (active) | 0.00282 µM (active) | 0.00332 µM (active) | 0.182 µM (active) | 0.000352 µM (active) | 0.00121 µM (active) | 0.000359 µM (active) | 0.000532 µM (active) | 0.0248 µM (active) | 0.00303 µM (active) | 0.000281 µM (active) | 0.00119 µM (active) | 0.000516 µM (active) |
